In publication PMC8284453 (Antimicrobial Agents and Chemotherapy, 2021):
Converted amounts (≈) assume the structure as drawn. Like-named read-outs stand apart in the source and are kept apart here.

Legend:
[1] = system: Enterobacterales expressing class D oxacillinases (OXA-48/48-like); experiment: organism not typed; type: cell-based, E. coli, K. pneumoniae
[2] = system: isogenic strains of E. coli expressing Ambler class A, B, C, and D enzymes; experiment: microbe, parasite or virus in culture; type: cell-based, Escherichia coli
[3] = system: E. coli ESBL4 (CTX-M-15); experiment: Broth microdilution MIC; type: cell-based; conditions: modal value, 5 independent determinations
[4] = system: E. cloacae ECL01 (TEM-72, ACT-1, P99AmpC); experiment: Broth microdilution MIC; type: cell-based; conditions: modal value, 5 independent determinations
[5] = system: K. pneumoniae ATCC BAA-1705 (KPC-2); experiment: Broth microdilution MIC; type: cell-based; conditions: modal value, 5 independent determinations
[6] = system: K. pneumoniae 752286 (OXA-48); experiment: Broth microdilution MIC; type: cell-based; conditions: modal value, 5 independent determinations
[7] = system: E. cloacae ECL01 (TEM-72, ACT-1, P99AmpC); experiment: 24-h time-kill assay; type: cell-based; conditions: lowest concentration with ≥3-log10 CFU/ml reduction at 24 h
Description: (§1) In vitro antibacterial time-kill assay. […] Time-kill assays were performed in 14 ml glass tubes or deep-well storage plates with a bacterial inoculum in CAMHB of 5 × 10^5 CFU/ml. The tubes/plates were incubated at 37°C with shaking at 200 rpm, and aliquots were drawn at six time points (0, 2, 4, 6, 8, and 24 h) to conduct 0.5 log10 dilutions in CAMHB in 96-well plates that were incubated overnight at 37°C and used to ascertain viable bacterial counts. The lowest quantifiable amount by this method is 2 log10 CFU/ml.

[8] = system: E. coli ESBL4 (CTX-M-15); experiment: 24-h time-kill assay; type: cell-based
Description: as §1

[9] = system: K. pneumoniae 752286 (OXA-48); experiment: 24-h time-kill assay; type: cell-based; conditions: lowest concentration with ≥3-log10 CFU/ml reduction at 24 h
Description: as §1

[10] = system: K. pneumoniae ATCC BAA-1705 (KPC-2); experiment: 24-h time-kill assay; type: cell-based; conditions: lowest concentration with ≥3-log10 CFU/ml reduction at 24 h
Description: as §1

[11] = system: Enterobacterales expressing class C cephalosporinases

C[C@@H](O)[C@H]1C(=O)N2C(C(=O)O)=C(S[C@H]3CC[S@@+]([O-])C3)S[C@H]12 [Sulopenem] was tested, and the MIC ([1]; K. pneumoniae DOV (OXA-48)) was 2 µg/mL (≈ 5.72 µM), the MIC ([1]; K. pneumoniae KIRK (OXA-162)) was 4 µg/mL (≈ 11.4 µM) and the MIC ([1]; K. pneumoniae SI-C17 (OXA-48)) was 16 µg/mL (≈ 45.8 µM). The “Fold increase in MIC compared to vector control” value (“Fold increase in MIC” for short) [2] was 2, the “Fold increase in MIC” value ([2]; E. coli expressing ACT-17 (class C), inhibitor fixed at 4 μg/ml) was 8 and the “Fold increase in MIC” value ([2]; E. coli expressing CMY-2 (class C), inhibitor fixed at 4 μg/ml) was 8. The “Fold increase in MIC” value ([2]; E. coli expressing CMY-42 (class C), inhibitor fixed at 4 μg/ml) was 16, the “Fold increase in MIC” value ([2]; E. coli expressing CTX-M-15 (class A), inhibitor fixed at 4 μg/ml) was 4 and the “Fold increase in MIC” value ([2]; E. coli expressing GES-5 (class A), inhibitor fixed at 4 μg/ml) was 256. The “Fold increase in MIC” value ([2]; E. coli expressing KPC-2 (class A), inhibitor fixed at 4 μg/ml) was 2,048, the “Fold increase in MIC” value ([2]; E. coli expressing KPC-3 (class A), inhibitor fixed at 4 μg/ml) was 2,048 and the “Fold increase in MIC” value ([2]; E. coli expressing KPC-3 D179Y (class A), inhibitor fixed at 4 μg/ml) was 16. The “Fold increase in MIC” value ([2]; E. coli expressing NDM-1 (class B), inhibitor fixed at 4 μg/ml) was 1,024, the “Fold increase in MIC” value ([2]; E. coli expressing OXA-23 (class D), inhibitor fixed at 4 μg/ml) was 64 and the “Fold increase in MIC” value ([2]; E. coli expressing OXA-48 (class D), inhibitor fixed at 4 μg/ml) was 512. The “Fold increase in MIC” value ([2]; E. coli expressing OXA-163 (class D), inhibitor fixed at 4 μg/ml) was 8, the “Fold increase in MIC” value ([2]; E. coli expressing OXA-181 (class D), inhibitor fixed at 4 μg/ml) was 1,024 and the “Fold increase in MIC” value ([2]; E. coli expressing P99/AmpC (class C), inhibitor fixed at 4 μg/ml) was 16. The “Fold increase in MIC” value ([2]; E. coli expressing PER-1 (class A), inhibitor fixed at 4 μg/ml) was 8, the “Fold increase in MIC” value ([2]; E. coli expressing SHV-5 (class A), inhibitor fixed at 4 μg/ml) was 8 and the “Fold increase in MIC” value ([2]; E. coli expressing SHV-12 (class A), inhibitor fixed at 4 μg/ml) was 4. The “Fold increase in MIC” value ([2]; E. coli expressing VEB-9 (class A), inhibitor fixed at 4 μg/ml) was 4, the MIC [3] was 0.12 µg/mL (≈ 0.343 µM) and the MIC [4] was 1 µg/mL (≈ 2.86 µM). The MIC [5] was 32 µg/mL (≈ 91.6 µM), the MIC [6] was 16 µg/mL (≈ 45.8 µM) and the MBC [7] was 1 µg/mL (≈ 2.86 µM). For the same molecule, the “outcome of 24-h time-kill assay” value ([8]; Fig. 3a, CTB 2 μg/ml with BLI at 4 μg/ml, CTB alone 8 μg/ml, amoxicillin 8/clavulanic acid 4 μg/ml, penems 2 μg/ml) was “bactericidal activity”, the MBC ([8]; lowest concentration with ≥3-log10 CFU/ml reduction at 24 h) was 0.12 µg/mL (≈ 0.343 µM) and the MBC [9] was >32 µg/mL. For the same molecule, the MBC [10] was 32 µg/mL (≈ 91.6 µM), the MIC90 ([11]; 25 isolates, BLI fixed at 4 μg/ml, AMC 2:1) was 2 µg/mL (≈ 5.72 µM) and the MIC ([11]; C. freundii 134390 (AmpC, TEM-1)) was 0.06 µg/mL (≈ 0.172 µM). For the same molecule, the MIC ([11]; E. aerogenes 110099 (AmpC, SHV-12)) was 0.06 µg/mL (≈ 0.172 µM), the MIC ([11]; E. aerogenes 111707 (AmpC, TEM-1)) was 0.12 µg/mL (≈ 0.343 µM) and the MIC ([11]; E. aerogenes 111902 (AmpC, TEM-1)) was 0.25 µg/mL (≈ 0.715 µM). The MIC ([11]; E. coli 128 (AmpC, SHV-12, TEM-1, Toho-2)) was 0.03 µg/mL (≈ 0.0858 µM), the MIC ([11]; E. coli 3102 (AmpC, CTX-M-15, TEM-1)) was 0.03 µg/mL (≈ 0.0858 µM) and the MIC ([11]; E. coli CH1 (AmpC, CTX-M-15, SHV-1, SHV-5, TEM-1)) was 0.06 µg/mL (≈ 0.172 µM). For the same molecule, the MIC ([11]; E. coli EC469 (AmpC, SHV-12, TEM-1)) was 0.03 µg/mL (≈ 0.0858 µM), the MIC ([11]; E. coli J53 (AmpC, SHV-5, TEM-1)) was 0.06 µg/mL (≈ 0.172 µM) and the MIC ([11]; E. coli SI-P026TC (CMY-2, TEM-1)) was 0.25 µg/mL (≈ 0.715 µM). For the same molecule, the MIC ([11]; E. coli SI-PO26 (AmpC, CMY-2, TEM-1)) was 0.12 µg/mL (≈ 0.343 µM), the MIC ([11]; K. pneumoniae 129032 (MOX-2, SHV-12, TEM-1)) was 0.06 µg/mL (≈ 0.172 µM) and the MIC ([11]; K. pneumoniae 178279 (AmpC, SHV-12, TEM-1)) was 0.06 µg/mL (≈ 0.172 µM). For the same molecule, the MIC ([11]; K. pneumoniae 212027 (AmpC, FOX-5, TEM-1)) was 0.03 µg/mL (≈ 0.0858 µM), the MIC ([11]; K. pneumoniae 217917 (CMY-2, TEM-1)) was 0.06 µg/mL (≈ 0.172 µM) and the MIC ([11]; K. pneumoniae 301313 (AmpC, SHV-12, TEM-1)) was 0.12 µg/mL (≈ 0.343 µM). It also gave an MIC ([11]; K. pneumoniae 398845 (CMY-2, SHV-12, TEM-1)) of 0.06 µg/mL (≈ 0.172 µM), an MIC ([11]; K. pneumoniae SI-F100 (CMY-2, SHV-5, TEM-1)) of 0.03 µg/mL (≈ 0.0858 µM) and an MIC ([11]; P. mirabilis SI-F014 (AmpC, TEM-72)) of 1 µg/mL (≈ 2.86 µM). For the same molecule, the MIC ([11]; S. marcescens 132253 (AmpC, CTX-M-3, OXA-1, SHV-12, TEM-1)) was 2 µg/mL (≈ 5.72 µM), the MIC ([11]; S. marcescens 134434 (AmpC, SHV-12, TEM-1)) was 8 µg/mL (≈ 22.9 µM) and the MIC ([11]; S. marcescens 142397 (AmpC, SHV-7, TEM-1)) was 2 µg/mL (≈ 5.72 µM). The MIC ([11]; S. marcescens 156212 (AmpC, SHV-12, TEM-1)) was 1 µg/mL (≈ 2.86 µM), the MIC ([11]; S. marcescens 192478 (AmpC, SHV-12, TEM-1)) was 0.25 µg/mL (≈ 0.715 µM) and the MIC ([11]; S. marcescens 218068 (AmpC, SHV-7, TEM-1)) was 4 µg/mL (≈ 11.4 µM).
